Laboratory results published in patent publication US20090202698A1, “OLIGOPEPTIDES FOR USE AS TASTE MODULATORS” (Nutrinova Nutrition Specialties & Food Ingredients GmbH, priority 2008, published 2009).

Molecular target: T1, human T1R2/T1R3 taste receptor (Homo sapiens, UniProt Q7RTX0+Q8TE23)
T1 construct: the cDNA for the receptors ht1R2 and ht1R3 and the cDNA for the blasticidin S deaminase gene have been cloned; expressed in transfected cells; host or cells: HEK293 stably expressing mouse G-alpha-15, stably transfected with the tricistronic vector pTrix-Eb-R2R3 (blasticidin selection)
T1 sequence (Q8TE23 20-839): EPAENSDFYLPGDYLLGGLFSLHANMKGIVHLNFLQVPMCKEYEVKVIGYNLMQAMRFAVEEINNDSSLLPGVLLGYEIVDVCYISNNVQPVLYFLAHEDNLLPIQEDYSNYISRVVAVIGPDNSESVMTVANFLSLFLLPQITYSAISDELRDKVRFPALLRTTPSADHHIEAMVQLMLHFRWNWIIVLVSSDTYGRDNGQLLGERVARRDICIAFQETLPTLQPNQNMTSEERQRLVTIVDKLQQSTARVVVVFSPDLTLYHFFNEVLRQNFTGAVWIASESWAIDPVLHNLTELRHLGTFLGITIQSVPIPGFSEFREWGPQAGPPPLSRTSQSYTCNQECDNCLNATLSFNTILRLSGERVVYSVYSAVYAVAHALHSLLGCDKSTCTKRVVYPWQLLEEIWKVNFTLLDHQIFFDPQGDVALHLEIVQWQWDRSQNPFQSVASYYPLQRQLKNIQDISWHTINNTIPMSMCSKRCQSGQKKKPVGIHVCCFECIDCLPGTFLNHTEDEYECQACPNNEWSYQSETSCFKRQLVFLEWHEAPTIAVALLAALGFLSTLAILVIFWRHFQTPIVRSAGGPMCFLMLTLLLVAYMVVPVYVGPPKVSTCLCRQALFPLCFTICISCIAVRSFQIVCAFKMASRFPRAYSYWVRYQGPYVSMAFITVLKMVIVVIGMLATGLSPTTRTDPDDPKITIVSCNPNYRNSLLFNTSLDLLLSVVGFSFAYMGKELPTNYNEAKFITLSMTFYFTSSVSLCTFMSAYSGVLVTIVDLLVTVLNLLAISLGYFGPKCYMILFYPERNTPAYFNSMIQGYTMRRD
T1 sequence (Q7RTX0 21-852): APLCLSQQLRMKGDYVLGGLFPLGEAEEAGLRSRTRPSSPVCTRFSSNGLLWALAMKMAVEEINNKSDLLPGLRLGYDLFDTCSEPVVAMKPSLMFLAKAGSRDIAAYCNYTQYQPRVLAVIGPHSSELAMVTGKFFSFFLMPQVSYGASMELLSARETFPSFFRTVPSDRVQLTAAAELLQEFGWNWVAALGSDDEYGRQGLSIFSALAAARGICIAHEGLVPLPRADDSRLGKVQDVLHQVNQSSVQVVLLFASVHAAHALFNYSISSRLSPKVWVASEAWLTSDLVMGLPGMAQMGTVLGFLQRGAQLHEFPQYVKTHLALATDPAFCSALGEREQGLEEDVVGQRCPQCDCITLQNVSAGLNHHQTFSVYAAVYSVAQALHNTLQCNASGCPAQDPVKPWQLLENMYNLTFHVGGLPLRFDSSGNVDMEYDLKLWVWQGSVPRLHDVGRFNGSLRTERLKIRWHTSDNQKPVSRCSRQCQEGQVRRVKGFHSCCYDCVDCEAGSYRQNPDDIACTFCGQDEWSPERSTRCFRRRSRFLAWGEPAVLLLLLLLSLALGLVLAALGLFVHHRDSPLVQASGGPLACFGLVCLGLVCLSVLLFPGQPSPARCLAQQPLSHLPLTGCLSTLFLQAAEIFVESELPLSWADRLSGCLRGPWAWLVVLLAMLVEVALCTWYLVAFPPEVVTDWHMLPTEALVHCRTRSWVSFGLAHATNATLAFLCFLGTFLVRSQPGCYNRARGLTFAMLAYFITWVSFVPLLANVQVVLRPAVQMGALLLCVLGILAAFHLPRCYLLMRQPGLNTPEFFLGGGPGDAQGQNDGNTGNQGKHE
Assay: Recombinant human T1R2/T1R3 taste receptor dependent calcium (Fluo-4 AM) cell based assay in stable HEK293 cells
Method: Fluo-4 AM assay with stable HEK293 cells—Stable cells are maintained in DMEM high-glucose medium (Invitrogen) supplemented with 10% fetal bovine serum (Biochrom) and 4 mM L-glutamine (Invitrogen). Cells for calcium imaging are maintained in DMEM low-glucose medium supplemented with 10% FBS and 1× Glutamax-1 (Invitrogen) for 48 hours before seeding. These stable cells are trypsinized after 48 hours (either with Trypsin-EDTA, Accutase or TrypLE) and seeded onto poly-D-lysine coated 96-well assay plates (Corning) at a density of 45,000 cells/well in DMEM low-glucose medium supplemented with 10% FBS and 1× Glutamax-1.
After 24 hours, the cells were loaded in 100 μl medium with additional 100 μl of 4 μM Fluo-4 (calcium sensing dye, 2 μM end concentration; Molecular Probes) in Krebs-HEPES (KH)-buffer for 1 hour. The loading reagent is then replaced by 80 μl KH-buffer per well. The Krebs-HEPES-buffer (KH-buffer) is a physiological saline solution including 1.2 mM CaCl2, 4.2 mM NaHCO3 and 10 mM HEPES.
The dye-loaded stable cells in plates were placed into a fluorescence microtiter plate reader to monitor fluorescence (excitation 488 nm, emission 520 nm) change after the addition of 20 μl KH-buffer supplemented with 5x tastants. For each trace, tastant was added 11.5 seconds after the start of the scan and mixed two times with the buffer, scanning continued for an additional 32 seconds, and data were collected every second.
Data analysis/Data recording—Calcium mobilization was quantified as the change of peak fluorescence OF) over the baseline level (F). Data were expressed as the mean S.E. of the )F/F value of replicated independent samples. The analysis was done with the software of the microtiter plate reader.
To analyze the function and activity of aladapcin the heterodimeric T1R2/T1R3 sweet taste receptor has been utilized in a calcium dependent cell based assay. T1R type taste receptors have been transfected with the multicistronic plasmid vector pTrix-Eb-R2R3 in a HEK293 cell line stably expressing the promiscuous mouse G-alpha-15 G-protein. […]

Row | Structure (SMILES) | aladapcin activity on sweet taste receptors (activity as sweet enhancer): amplification of fructose (in the presence of 25 mM fructose, Fluo4-AM fluorescence increase, HEK293 cells expressing G-alpha-15, human T1R2 and T1R3, FIG. 2) | sweetener potential (receptor activation by the compound alone) (without the presence of fructose (control measurement), range 0.1-25 μm, FIG. 3) | activation of the sweet taste receptors by the sweetener alone (25 mM fructose (4.5 g/l), preexaminations)
1 | CC(NC(=O)C(C)NC(=O)C(N)CCCC(N)C(N)=O)C(=O)O (stereo not drawn) [Aladapcin, 2-[2-[(2,6-diamino-6-carbamoyl-hexanoyl)-amino]propanoylamino]propanoic acid] | dose dependent | no sweetener potential | –
2 | O=C(CO)[C@@H](O)[C@H](O)[C@H](O)CO [fructose, reference compound] | – | – | barely activating
